Converted amounts (≈) assume the structure as drawn. Each block holds one compound with its values, some of them ahead of it.
Assays:
Enterococcus faecalis [1] = assay: Antibacterial activity against Enterococcus faecalis ATCC 29212 assessed as inhibition of bacterial growth at 100 ug/mL incubated at 37 degC for 24 hrs by broth microdilution assay; type: functional; details: ATCC 29212, 24 h
Escherichia coli [2] = assay: Antibacterial activity against Escherichia coli ATCC 25922 assessed as inhibition of bacterial growth at 100 ug/mL incubated at 37 degC for 24 hrs by broth microdilution assay; type: functional; details: ATCC 25922, 24 h
Staphylococcus aureus [3] = assay: Antibacterial activity against Staphylococcus aureus ATCC 25923 assessed as inhibition of bacterial growth at 100 ug/mL incubated at 37 degC for 24 hrs by broth microdilution assay; type: functional; details: ATCC 25923, 24 h
Staphylococcus aureus [4] = assay: Antibacterial activity against Staphylococcus aureus ATCC 25923 assessed as inhibition of bacterial growth incubated at 37 degC for 24 hrs by broth microdilution assay; type: functional; details: ATCC 25923, 24 h
Escherichia coli [5] = assay: microbe, parasite or virus in culture; details: ATCC 25922, 24 h
Description: Antibacterial activity against Escherichia coli ATCC 25922 assessed as inhibition of bacterial growth incubated at 37 degC for 24 hrs by broth microdilution assay

Enterococcus faecalis [6] = assay: microbe, parasite or virus in culture; details: ATCC 29212, 24 h
Description: Antibacterial activity against Enterococcus faecalis ATCC 29212 assessed as inhibition of bacterial growth incubated at 37 degC for 24 hrs by broth microdilution assay

Compound: CCCCCCCCCCC[C@H](O)C[C@H]1CC(=O)C=C(C)O1
- inhibition at 100 µg/mL (Enterococcus faecalis [1]): 23%
- inhibition at 100 µg/mL (Escherichia coli [2]): 27%
- inhibition at 100 µg/mL (Staphylococcus aureus [3]): -8.5%

Compound: CCCCCCCCCCCc1cc(O)cc(O)c1C(C)=O
- inhibition at 100 µg/mL (Enterococcus faecalis [1]): -9.8%
- inhibition at 100 µg/mL (Escherichia coli [2]): -1%
- inhibition at 100 µg/mL (Staphylococcus aureus [3]): 17%

Compound: CCCCC/C=C\C/C=C\CCCCCCCC(=O)/C=C(/C)O
- inhibition at 100 µg/mL (Enterococcus faecalis [1]): -10%
- inhibition at 100 µg/mL (Escherichia coli [2]): -2.4%
- inhibition at 100 µg/mL (Staphylococcus aureus [3]): -17%

Compound: O=C(O)c1cn(C2CC2)c2cc(N3CCNCC3)c(F)cc2c1=O [CIPROFLOXACIN]
- MIC90 (Staphylococcus aureus [4]): 0.5 µg/mL (≈ 1.51 µM)
- MIC90 (Escherichia coli [5]): 0.016 µg/mL (≈ 0.0483 µM)
- MIC90 (Enterococcus faecalis [6]): 1 µg/mL (≈ 3.02 µM)

Compound: CCCCCCCCCCCC1CC=C/C(=C/C(C)=O)O1 (stereo not given)
- inhibition at 100 µg/mL (Enterococcus faecalis [1]): 19%
- inhibition at 100 µg/mL (Escherichia coli [2]): 25%
- inhibition at 100 µg/mL (Staphylococcus aureus [3]): -57%

Compound: CCCCCCCCCCCC1CC=C/C(=C\C(C)=O)O1 (stereo not given)
- inhibition at 100 µg/mL (Enterococcus faecalis [1]): 21%
- inhibition at 100 µg/mL (Escherichia coli [2]): 15%
- inhibition at 100 µg/mL (Staphylococcus aureus [3]): -95%

- MIC90 (Staphylococcus aureus [4]): 25 µg/mL (≈ 81 µM)
Compound: CCCCCCCCCCCC1=C(C(C)=O)C(=O)C[C@@H](O)C1
- inhibition at 100 µg/mL (Enterococcus faecalis [1]): 23%
- inhibition at 100 µg/mL (Escherichia coli [2]): 29%
- inhibition at 100 µg/mL (Staphylococcus aureus [3]): 100%

Compound: CCCCCCCCCCCc1cccc(O)c1C(C)=O
- inhibition at 100 µg/mL (Enterococcus faecalis [1]): -1%
- inhibition at 100 µg/mL (Escherichia coli [2]): -3.3%
- inhibition at 100 µg/mL (Staphylococcus aureus [3]): 65%

From ChEMBL document CHEMBL3588777, “Acetate-Derived Metabolites from the Brown Alga Lobophora variegata” (2015)
